The results in this text go back to ChEMBL document CHEMBL1201862, “PubChem BioAssay data set” (2004).

Common to all, as to assay: NCI tumour cell line growth inhibition, 48 h
The test system of test [1] is SK-MEL-28.
Test [2] relates to UACC-257.
Test [3] relates to OVCAR-4.
Test [4] relates to T47D.
For test [5], the system named is NCI-H522.
Test [6] deals with TK-10.
Test [7] concerns 786-0.
For test [8], the system named is SF-539.
Test [9] has as its system ACHN.
Test [10] has as its system OVCAR-5.
Test [11] concerns SNB-19.
The subject of test [12] is HCT-15.
The test system of test [13] is KM12.
For test [14], the system named is OVCAR-8.
Test [15] concerns HT-29.
The test system of test [16] is U-251.
The test system of test [17] is COLO 205.
The subject of test [18] is UO-31.
The test system of test [19] is CCRF-CEM.
For test [20], the system named is HL-60.

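Each compound was tested at five concentrations against cells in 96-well plates for 48 hours. GI50 is the concentration that inhibits growth by half.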 Activity calls are given as the source filed them. Rule as the data show it: active = GI50 up to about 1.1 µM and inactive = higher.

Consider `CC(=N/NC(=S)N(C)C)/C(=N\NC(=S)N(C)C)c1ccccc1`, for which the GI50 in [1] is 1.9 µM (inactive); in test [2] it was 1.98 µM (inactive); in test [3], 2.02 µM (inactive); in [4], 1.65 µM (inactive); in [5], 1.78 µM (inactive); in [6] it was 1.59 µM (inactive). Further, the GI50 was 2 µM (inactive) in [7]; 3.66 µM (inactive) in test [8]; 1.71 µM (inactive) in test [9]; 2.21 µM (inactive) in [10]; 2.56 µM (inactive) in test [11]; 1.21 µM in test [12]. For the same compound, the GI50 is 2.15 µM (inactive) in [13]; 2.02 µM (inactive) in test [14]; 3.38 µM (inactive) in test [15]; 2.8 µM (inactive) in test [16]; 1.79 µM (inactive) in test [17]; 2.11 µM (inactive) in [18].
For the compound `OCCSCc1cc(Cl)cc(Cl)c1O`, the GI50 in test [1], in [2], in test [3], in test [4], in test [5] and in [6] was > 100 µM (inactive) in each case. Further, the GI50 in test [7] was > 100 µM (inactive); in [9], > 100 µM (inactive); in [10], > 100 µM (inactive); in test [19], > 100 µM (inactive); in [11] it was > 100 µM (inactive); in test [12], above 100 µM. For the same compound, the GI50 in [13], in test [14], in test [15], in test [16], in test [17] and in [18] was > 100 µM (inactive) each time.
Take `CC(=O)OC1COC(Nn2c(=O)[nH]c3ccccc3c2=O)C(OC(C)=O)C1OC(C)=O` (stereo not drawn): the GI50 in test [1] was > 100 µM (inactive); in test [20], > 100 µM (inactive); in test [2] it was > 100 µM (inactive); in [4], 47.1 µM (inactive); in [6] it was > 100 µM (inactive); in test [7], > 100 µM (inactive). Moreover, the GI50 in [8] is > 100 µM (inactive); in [9] it was > 100 µM (inactive); in test [10] it was > 100 µM (inactive); in test [19], > 100 µM (inactive); in test [11], > 100 µM (inactive); in test [12], above 100 µM. Moreover, the GI50 in test [13] was 39.4 µM (inactive); in test [14] it was 86.9 µM (inactive); in [15], > 100 µM (inactive); in test [16], > 100 µM (inactive); in [17], > 100 µM (inactive); in test [18], 81.1 µM (inactive).
For the compound `CC(=S)NC1C(Oc2ccc3c(C)cc(=O)oc3c2)OC(CO)C(O)C1O` (stereo not drawn), the GI50 in test [1], in test [20], in test [2], in test [3], in test [4] and in [6] was > 100 µM (inactive) each time. The GI50 in test [7] was > 10 µM (inactive); in test [8] it was > 100 µM (inactive); in test [9] it was > 100 µM (inactive); in test [10], > 100 µM (inactive); in [19], > 100 µM (inactive); in test [11], > 100 µM (inactive). The GI50 in test [12] was above 100 µM; in [13], > 100 µM (inactive); in test [14], > 100 µM (inactive); in [15], > 100 µM (inactive); in [16], > 100 µM (inactive); in test [18], > 100 µM (inactive).
For `CCC(c1ccc2cc(O)ccc2c1)C(C)(C)C(=O)O` (stereo not drawn), the GI50 in [1], in test [2], in [3], in test [4], in test [5] and in test [6] was > 100 µM (inactive) each time. Also, the GI50 in test [7] is > 100 µM (inactive); in test [8], > 100 µM (inactive); in test [9] it was > 100 µM (inactive); in test [10], > 100 µM (inactive); in test [11], > 100 µM (inactive); in test [12], above 100 µM. The GI50 in test [13], in [14], in [15], in test [16], in test [17] and in [18] was > 100 µM (inactive) each time.
Regarding `N#CC(c1cc(Cl)ncn1)c1nc2ccccc2s1` (stereo not drawn), the GI50 in test [1] was 19.3 µM (inactive); in test [2], 10.5 µM (inactive); in test [3], 6.46 µM (inactive); in test [4], 2.67 µM (inactive); in test [5], 2.07 µM (inactive); in test [6], 4.81 µM (inactive). In addition, the GI50 was 3.77 µM (inactive) in test [7]; 5.42 µM (inactive) in [8]; 18.3 µM (inactive) in test [9]; 18.1 µM (inactive) in test [10]; 5.93 µM (inactive) in test [11]; 3.74 µM in test [12]. Besides, the GI50 in [13] was 3.87 µM (inactive); in [14] it was 3.85 µM (inactive); in [15], 10.3 µM (inactive); in test [16], 4.02 µM (inactive); in [17], 14.8 µM (inactive); in test [18] it was 16.6 µM (inactive).
For the compound `Oc1cc(CN2COc3ccccc32)c(O)cc1CNC1CCCCC1`, the GI50 was 21.8 µM (inactive) in test [1]; 15 µM (inactive) in test [2]; 20.3 µM (inactive) in test [3]; 26.4 µM (inactive) in [4]; 14.1 µM (inactive) in [5]; 21.6 µM (inactive) in test [6]. For the same compound, the GI50 is 18.5 µM (inactive) in [7]; 19.5 µM (inactive) in test [8]; 29.2 µM (inactive) in test [9]; > 100 µM (inactive) in test [10]; 4.53 µM (inactive) in [19]; > 100 µM (inactive) in [11]. The GI50 in [12] was 20.1 µM; in [13] it was 49.9 µM (inactive); in [14], 24 µM (inactive); in [15], 22 µM (inactive); in test [16], 17.7 µM (inactive); in test [17], 17 µM (inactive). Moreover, the GI50 in test [18] is 35.4 µM (inactive).
In the case of `CO[C@@](c1ccccc1)(c1nc(C#N)c(N)o1)C(F)(F)F`, the GI50 in test [1] was > 100 µM (inactive); in test [2] it was 85.5 µM (inactive); in [3] it was > 100 µM (inactive); in test [4] it was > 100 µM (inactive); in [5], 26.6 µM (inactive); in test [6] it was > 100 µM (inactive). Also, the GI50 in test [7] was > 100 µM (inactive); in test [8], > 100 µM (inactive); in test [9], > 100 µM (inactive); in [19], 26.5 µM (inactive); in [11] it was > 100 µM (inactive); in [12] it was 85.9 µM. Besides, the GI50 in [13] was > 100 µM (inactive); in test [14], > 100 µM (inactive); in [16], > 100 µM (inactive); in test [17], > 100 µM (inactive); in test [18] it was 68.1 µM (inactive).
Turning to `O=C1C(Cl)=C(NCCF)C(=O)c2ncccc21`, the GI50 is 1.87 µM (inactive) in [1]; 5.11 µM (inactive) in [20]; 1.62 µM (inactive) in test [2]; 2.2 µM (inactive) in test [4]; 2.13 µM (inactive) in test [6]; 1.82 µM (inactive) in test [7]. The GI50 in [8] was 1.81 µM (inactive); in test [9], 2.19 µM (inactive); in test [10] it was 1.88 µM (inactive); in [19], 0.235 µM (active); in [11], 1.64 µM (inactive); in test [12], 2.08 µM. Moreover, the GI50 was 1.93 µM (inactive) in test [13]; 2.03 µM (inactive) in test [14]; 2.97 µM (inactive) in test [15]; 1.46 µM (inactive) in test [16]; 1.32 µM (inactive) in [18].
Regarding `COc1cc2c(cc1OC)C(C)N(C)c1c-2c(OC(C)=O)cc2cc(OC)c(OC)cc12` (stereo not drawn), the GI50 in test [1] is 19.9 µM (inactive); in test [2], 11.1 µM (inactive); in [3] it was 5.61 µM (inactive); in test [4], 8.24 µM (inactive); in [5] it was 3.34 µM (inactive); in test [6] it was 23.2 µM (inactive). The GI50 in test [7] was 13.1 µM (inactive); in test [8], 16 µM (inactive); in test [9] it was 17.3 µM (inactive); in [10], 36.4 µM (inactive); in test [19], 31.6 µM (inactive); in [11] it was 27.5 µM (inactive). Further, the GI50 in test [12] is 15 µM; in test [13], 14.2 µM (inactive); in test [14] it was 9.4 µM (inactive); in test [15], 8.04 µM (inactive); in test [16], 21.7 µM (inactive); in test [17], 6.43 µM (inactive). In addition, the GI50 in [18] was 12.1 µM (inactive).
Turning to `Oc1cccnc1CN1CCCCC1`, the GI50 in [1], in test [2], in test [3], in test [4], in test [5] and in [6] was > 100 µM (inactive) throughout. Also, the GI50 in [7] was > 100 µM (inactive); in [8], > 100 µM (inactive); in [9] it was > 100 µM (inactive); in test [10], > 100 µM (inactive); in test [11], > 100 µM (inactive); in [12] it was above 100 µM. The GI50 in test [13], in test [14], in test [15], in [16], in test [17] and in test [18] was > 100 µM (inactive) in each case.
